Source: ChEMBL document CHEMBL1201862, “PubChem BioAssay data set” (2004)
Several values for one entry are separate records, joined by “and”; a condition that tells them apart may be missing. Identical values can stand only once.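 In this assay, cells in 96-well plates receive the compound at five concentrations for 48 hours. Endpoints are linearly interpolated between the surrounding concentrations. GI50 = concentration required for 50% inhibition of growth.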 Activity calls are given as the source filed them. No stated cut-off is given here; in the data, active = GI50 up to about 1.1 µM and inactive = higher.

Columns and labels:
Test in all cases: DTP human tumour cell line panel, 48 h
OVCAR-8 = tested on: OVCAR-8
IGROV-1 = tested on: IGROV-1
MDA-N = tested on: MDA-N
HCC 2998 = tested on: HCC 2998
DU-145 = tested on: DU-145
SNB-75 = tested on: SNB-75
UACC-257 = tested on: UACC-257
SK-MEL-5 = tested on: SK-MEL-5
SW-620 = tested on: SW-620
A549 = tested on: A549
COLO 205 = tested on: COLO 205
Malme-3M = tested on: Malme-3M
HCT-15 = tested on: HCT-15
MDA-MB-435 = tested on: MDA-MB-435
NCI-H226 = tested on: NCI-H226
LOX IMVI = tested on: LOX IMVI
NCI-H23 = tested on: NCI-H23
OVCAR-4 = tested on: OVCAR-4
OVCAR-5 = tested on: OVCAR-5

SMILES	GI50 (OVCAR-8)	GI50 (IGROV-1)	GI50 (MDA-N)	GI50 (HCC 2998)	GI50 (DU-145)	GI50 (SNB-75)	GI50 (UACC-257)	GI50 (SK-MEL-5)	GI50 (SW-620)	GI50 (A549)	GI50 (COLO 205)	GI50 (Malme-3M)	GI50 (HCT-15)	GI50 (MDA-MB-435)	GI50 (NCI-H226)	GI50 (LOX IMVI)	GI50 (NCI-H23)	GI50 (OVCAR-4)	GI50 (OVCAR-5)
CN(C)c1ccc(/C=C/C(=O)c2ccc(O)cc2)cc1	7.29 µM (inactive)	10.2 µM (inactive)	0.935 µM (active)	15.1 µM (inactive)	8.67 µM (inactive)	5.2 µM (inactive)	7.66 µM (inactive)	6.58 µM (inactive)	3.57 µM (inactive)	6.27 µM (inactive)	14 µM (inactive)	8.45 µM (inactive)	2.94 µM	1.27 µM (inactive)	56.4 µM (inactive)	6.35 µM (inactive)	11.3 µM (inactive)	24.2 µM (inactive)	38.6 µM (inactive)
Cc1ccc(-c2nnc(-c3ccc4ccccc4c3)o2)cc1	12.4 µM (inactive)	> 91.2 µM (inactive)	17.5 µM (inactive)	> 100 µM (inactive)	18.2 µM (inactive)	6.7 µM (inactive)	22.2 µM (inactive)	> 96.2 µM (inactive)	20 µM (inactive)	> 100 µM (inactive)	> 100 µM (inactive)	5.38 µM (inactive)	> 96.8 µM	8.11 µM (inactive)	25.2 µM (inactive)	11.3 µM (inactive)	> 100 µM (inactive)	40.3 µM (inactive)	> 61.8 µM (inactive)
O=[N+]([O-])c1cccc2nc3ccccc3c(NCCCN3CCOCC3)c12	0.012 µM (active)	0.0217 µM (active)	< 0.01 µM (active)	< 0.01 µM (active)	< 0.01 µM (active)	0.0387 µM (active)	0.0235 µM (active)	< 0.0114 µM (active)	< 0.01 µM (active)	< 0.0121 µM (active)	< 0.01 µM (active)	0.0142 µM (active)	< 0.0104 µM	< 0.0117 µM (active)	0.0213 µM (active)	0.0442 µM (active)	< 0.0129 µM (active)	0.0191 µM (active)	0.0287 µM (active)
COC(=O)N1C2C(C[C@@]1(C)C(=O)OC)c1ccccc1N2S(=O)(=O)c1ccccc1 (some centres undefined)	> 100 µM (inactive)	> 100 µM (inactive)	> 100 µM (inactive)	> 100 µM (inactive)	> 100 µM (inactive)	> 100 µM (inactive)	> 100 µM (inactive)	> 100 µM (inactive)	> 100 µM (inactive)	> 100 µM (inactive)	> 100 µM (inactive)	> 100 µM (inactive)	–	> 100 µM (inactive)	> 100 µM (inactive)	> 100 µM (inactive)	> 100 µM (inactive)	> 100 µM (inactive)	> 100 µM (inactive)
NC(Cc1ccc(O)cn1)C(=O)NC(C(=O)O)c1ccccc1 (centres undefined)	> 100 µM (inactive)	> 100 µM (inactive)	> 100 µM (inactive)	> 100 µM (inactive)	> 100 µM (inactive)	> 100 µM (inactive)	> 100 µM (inactive)	> 100 µM (inactive)	> 100 µM (inactive)	> 100 µM (inactive)	> 100 µM (inactive)	> 100 µM (inactive)	> 100 µM	> 100 µM (inactive)	> 100 µM (inactive)	> 100 µM (inactive)	> 100 µM (inactive)	> 100 µM (inactive)	> 100 µM (inactive)
O=C(CNc1ccccc1[N+](=O)[O-])Nn1c(-c2ccccc2)nc2ccccc2c1=O	33.8 µM (inactive)	16.3 µM (inactive)	19.9 µM (inactive)	13.5 µM (inactive)	28.7 µM (inactive)	11.3 µM (inactive)	> 10 µM (inactive)	10.4 µM (inactive)	19.1 µM (inactive)	43.5 µM (inactive)	20.6 µM (inactive)	23.9 µM (inactive)	19.9 µM	24.5 µM (inactive)	29.2 µM (inactive)	11.2 µM (inactive)	25.8 µM (inactive)	17 µM (inactive)	22.3 µM (inactive)
NS(=O)(=O)c1nnc(/N=C(/CCC(=O)O)C(=O)O)s1	> 100 µM (inactive)	> 100 µM (inactive)	> 100 µM (inactive)	> 100 µM (inactive)	> 100 µM (inactive)	> 100 µM (inactive)	> 100 µM (inactive)	> 100 µM (inactive)	> 100 µM (inactive)	> 100 µM (inactive)	> 100 µM (inactive)	41.3 µM (inactive)	> 100 µM	> 100 µM (inactive)	> 100 µM (inactive)	> 100 µM (inactive)	> 100 µM (inactive)	> 100 µM (inactive)	> 100 µM (inactive)
CC(CCC(=O)O)C(=O)O (centres undefined)	> 100 µM (inactive)	> 100 µM (inactive)	> 100 µM (inactive)	> 100 µM (inactive)	> 100 µM (inactive)	> 100 µM (inactive)	> 100 µM (inactive)	> 100 µM (inactive)	> 100 µM (inactive)	> 100 µM (inactive)	> 100 µM (inactive)	> 100 µM (inactive)	> 100 µM	> 100 µM (inactive)	> 100 µM (inactive)	> 100 µM (inactive)	> 100 µM (inactive)	> 100 µM (inactive)	> 100 µM (inactive)
COC(=O)C1OC(O[C@H]2CC[C@]3(C)[C@H]4CC=C5[C@@H]6CC(C)(C)CC[C@]6(C(=O)OC6OCC(O)C(O)C6OC6OC(C)C(OC7OCC(O)C(O)C7O)C(O)C6O)CC[C@@]5(C)[C@]4(C)CC[C@H]3C2(C)C)C(O)C(O)C1O (some centres undefined)	21.4 µM (inactive) and 15.2 µM (inactive)	24.8 µM (inactive) and 45.8 µM (inactive)	18.5 µM (inactive) and 15.9 µM (inactive)	11.9 µM (inactive) and 14.2 µM (inactive)	18 µM (inactive) and 22.1 µM (inactive)	16.5 µM (inactive) and 16.1 µM (inactive)	14 µM (inactive) and 16 µM (inactive)	17.9 µM (inactive) and 17.8 µM (inactive)	19.6 µM (inactive) and 21.9 µM (inactive)	16.9 µM (inactive) and 19.5 µM (inactive)	13.1 µM (inactive) and 16.9 µM (inactive)	15.5 µM (inactive) and 18.4 µM (inactive)	26.9 µM and 28.8 µM	19.1 µM (inactive) and 17.9 µM (inactive)	19.7 µM (inactive) and 20.8 µM (inactive)	16.4 µM (inactive) and 14.6 µM (inactive)	15.4 µM (inactive) and 15.8 µM (inactive)	15.8 µM (inactive) and 12.7 µM (inactive)	16.5 µM (inactive) and 20.7 µM (inactive)
C[C@]12Cc3cnc(-c4ccccc4)nc3C[C@@H]1CC[C@@H]1[C@@H]2CC[C@@]2(C)[C@H]1CC[C@]2(C)O	14.4 µM (inactive)	19.7 µM (inactive)	16.4 µM (inactive)	14.2 µM (inactive)	17.9 µM (inactive)	6.12 µM (inactive)	20.2 µM (inactive)	17.7 µM (inactive)	21.2 µM (inactive)	12.8 µM (inactive)	11.7 µM (inactive)	18.9 µM (inactive)	9.44 µM	20.8 µM (inactive)	26.1 µM (inactive)	4.6 µM (inactive)	17.6 µM (inactive)	14.4 µM (inactive)	14.3 µM (inactive)
